{"source": "patent US4877779A", "about": "“2-aminomethylalkynylalkyl-1,3-dithiane derivatives” (priority 1988, dated 1989)", "note": "Counter-ions that a name gives are not always drawn.", "data": [{"target": "T1, calcium channel (guinea-pig isolated ileal longitudinal smooth muscle) (Cavia porcellus, UniProt O35505)", "T1 construct": "The longitudinal smooth muscle is carefully separated from the underlying circular muscle layer; from tissue; host or cells: guinea-pig ileal longitudinal smooth muscle", "T1 sequence (O35505 whole entry)": "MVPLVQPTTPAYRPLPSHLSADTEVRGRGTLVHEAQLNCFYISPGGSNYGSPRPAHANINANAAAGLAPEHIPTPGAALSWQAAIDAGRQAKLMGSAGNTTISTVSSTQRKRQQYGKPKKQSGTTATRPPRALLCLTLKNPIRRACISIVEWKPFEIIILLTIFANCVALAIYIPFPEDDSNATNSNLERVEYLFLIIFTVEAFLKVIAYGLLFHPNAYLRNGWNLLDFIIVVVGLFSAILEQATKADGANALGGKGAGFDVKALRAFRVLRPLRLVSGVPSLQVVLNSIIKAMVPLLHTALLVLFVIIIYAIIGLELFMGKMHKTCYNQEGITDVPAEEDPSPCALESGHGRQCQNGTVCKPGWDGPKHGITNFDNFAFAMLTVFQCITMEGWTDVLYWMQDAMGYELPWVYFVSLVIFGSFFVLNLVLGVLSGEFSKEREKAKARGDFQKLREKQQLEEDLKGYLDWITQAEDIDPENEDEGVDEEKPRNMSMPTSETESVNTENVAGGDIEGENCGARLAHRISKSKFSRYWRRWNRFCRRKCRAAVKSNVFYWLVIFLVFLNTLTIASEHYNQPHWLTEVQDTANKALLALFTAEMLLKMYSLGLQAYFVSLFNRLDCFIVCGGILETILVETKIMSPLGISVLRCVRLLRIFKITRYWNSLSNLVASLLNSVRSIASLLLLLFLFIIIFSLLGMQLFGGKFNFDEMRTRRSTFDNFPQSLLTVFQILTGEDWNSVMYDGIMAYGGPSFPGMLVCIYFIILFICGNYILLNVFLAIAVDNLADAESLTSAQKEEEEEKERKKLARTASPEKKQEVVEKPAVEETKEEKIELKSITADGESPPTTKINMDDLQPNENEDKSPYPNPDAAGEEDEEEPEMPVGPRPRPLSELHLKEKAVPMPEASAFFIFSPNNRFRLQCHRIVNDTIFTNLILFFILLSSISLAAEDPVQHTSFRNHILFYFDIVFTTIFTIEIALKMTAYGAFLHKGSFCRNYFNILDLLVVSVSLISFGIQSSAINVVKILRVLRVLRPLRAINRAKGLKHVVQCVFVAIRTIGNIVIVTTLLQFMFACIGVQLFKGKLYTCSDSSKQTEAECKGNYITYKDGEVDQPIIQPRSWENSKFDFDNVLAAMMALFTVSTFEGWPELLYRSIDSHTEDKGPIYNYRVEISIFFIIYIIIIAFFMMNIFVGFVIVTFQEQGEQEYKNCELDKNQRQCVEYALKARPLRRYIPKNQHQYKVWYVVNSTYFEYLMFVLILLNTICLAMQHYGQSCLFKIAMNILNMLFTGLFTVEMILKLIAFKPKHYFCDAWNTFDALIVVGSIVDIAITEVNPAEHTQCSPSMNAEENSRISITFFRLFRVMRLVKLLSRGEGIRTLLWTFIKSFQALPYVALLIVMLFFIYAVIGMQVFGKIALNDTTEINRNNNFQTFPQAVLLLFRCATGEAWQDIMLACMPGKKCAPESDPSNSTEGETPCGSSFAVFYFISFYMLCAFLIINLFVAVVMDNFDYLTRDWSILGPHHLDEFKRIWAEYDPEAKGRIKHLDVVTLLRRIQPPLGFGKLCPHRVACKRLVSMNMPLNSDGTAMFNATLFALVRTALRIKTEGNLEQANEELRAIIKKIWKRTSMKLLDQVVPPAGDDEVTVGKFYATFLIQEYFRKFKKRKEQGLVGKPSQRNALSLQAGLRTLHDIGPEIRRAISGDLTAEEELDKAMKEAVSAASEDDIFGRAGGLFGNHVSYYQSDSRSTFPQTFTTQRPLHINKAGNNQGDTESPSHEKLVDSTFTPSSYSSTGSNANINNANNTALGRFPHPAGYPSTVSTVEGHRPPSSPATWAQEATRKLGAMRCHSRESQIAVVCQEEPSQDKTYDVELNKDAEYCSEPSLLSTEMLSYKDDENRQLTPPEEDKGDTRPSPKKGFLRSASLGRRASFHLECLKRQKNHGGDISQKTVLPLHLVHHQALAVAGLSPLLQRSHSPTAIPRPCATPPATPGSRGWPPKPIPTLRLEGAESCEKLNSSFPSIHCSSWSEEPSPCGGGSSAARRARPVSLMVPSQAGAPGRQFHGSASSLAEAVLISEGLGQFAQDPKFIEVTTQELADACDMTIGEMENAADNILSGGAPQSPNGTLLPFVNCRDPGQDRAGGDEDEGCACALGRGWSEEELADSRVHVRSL", "experiment": "Calcium Channel Antagonist Activity in Guinea-Pig Isolated Ileal Smooth Muscle", "assay_type": "cell-based", "conditions": "not given", "from_the_text": "(§1) Calcium Channel Antagonist Activity in Guinea-Pig Isolated Ileal Smooth Muscle.\n(§2) Male albino guinea-pigs are sacrificed by stunning and exsanguination. The abdominal cavity is opened and the small intestine is removed, with about 10 cm of the terminal ileum being discarded. The tissue is placed in a dish containing Tyrode's solution (composition, mM: […]; KCl 2.68; NaHCO3 11.90; NaH2 PO4 0.36; MgCl2 0.98; CaCl2 1.77; dextrose 5.55), and cut into three to four segments. A glass rod (6 mm diameter) is carefully inserted into the lumen of each segment, and excess connective tissue or fat is removed. The longitudinal smooth muscle is carefully separated from the underlying circular muscle layer by gently stroking a moist cotton swab on a tangent to shallow, longitudinal incisions made parallel to the mesenteric attachment. Using gentle traction, and taking care to keep the segment moist at all times, the preparation is stripped from the remaining length of the ileal segment (Paton & Zar, J. Physiol. 194, 13; 1968).\n(§3) Each preparation is suspended in a 10 mL jacketed glass tissue bath containing Tyrode's solution maintained at 37° C. and gassed with 5% CO2 in O2. The preparation is attached by silk thread to a force-displacement transducer. […] The initial resting tension is adjusted to 0.5 g and the preparation equilibrated for 55 minutes prior to experimentation. At the end of this period, the bathing solution is replaced with Ca^2+ -free Tyrode's solution. This solution is prepared by omitting CaCl2. The preparation is washed four times in Ca^2+ -free Tyrode 's to remove any Ca^2+ remaining in the bath, and allowed to equilibrate for a further 20 minutes.\n(§4) Concentration-response curves to CaCl2 are obtained using the following procedure. Preparations are exposed to a depolarizing concentration of KCl (80 mM) for 6 minutes. At the end of this period CaCl2 is added to the bath cumulatively in the concentration range 0.2-8.0 mM. Successive additions of each Ca^2+ concentration are carried out only when the previous response has reached a plateau. When the maximum response has been attained the bath is again washed (five times) with Ca^2+ -free buffer, and the preparation re-equilibrated for approximately 15 minutes. A second Ca^2+ concentration-response curve is then obtained in the same manner. This second curve serves as control for that tissue.\n(§5) Further curves are obtained in the presence of increasing concentrations of the test drugs. Where appropriate, the test drug is added to the bath immediately following addition of KCl, and 6 minutes later the concentration-response curve to Ca^2+ is obtained. Each test preparation is exposed to three different concentrations of a test drug.\n(§6) For each ileal preparation, the control EC50 for Ca^2+ (the concentration producing 50% of the maximum response) is determined from the control concentration-response curve. Calcium blocking activity is defined as a Kb value (the concentration producing a two-fold dextral shift in the control curve), calculated from EC50 ratios in the absence and presence of test drugs.", "units": {"Kb": "nM"}, "values": [{"smiles": "CCN(CC)CC#CCCC1(C2(O)c3ccccc3Oc3ccccc32)SCCCS1", "note": "[2-(5-Diethylaminopent-3-ynyl)-2-(9-hydroxy-9H-xanthen-9-yl)-1,3-dithiane]", "Kb": "156 ± 30"}]}, {"target": "T1, calcium channel (guinea-pig isolated ileal longitudinal smooth muscle)", "experiment": "Calcium Channel Antagonist Activity in Guinea-Pig Isolated Ileal Smooth Muscle", "assay_type": "cell-based", "conditions": "Kb = concentration producing a two-fold dextral shift in the control CaCl2 concentration-response curve; KCl (80 mM) depolarized ileal smooth muscle; read-out: Calcium antagonist Kb", "from_the_text": "as §1, §2, §3, §4, §5, §6", "units": {"Kb": "nM"}, "values": [{"smiles": "COc1ccc(CCN(C)CC#CCCC2SCCCS2)cc1OC", "note": "[2-[5-[2-(3,4-Dimethoxyphenyl)ethyl]methylaminopent-3-ynyl]-1,3-dithiane Oxalate]", "Kb": "2220 ± 70"}, {"smiles": "CN1CCN(CC#CCCC2(C3(O)c4ccccc4Oc4ccccc43)SCCCS2)CC1", "note": "[2-[5-(4-Methylpiperazinyl)pent-3-ynyl]-2-(9-hydroxy-9H-xanthen-9-yl)-1,3-dithiane Dioxalate]", "Kb": "488 ± 30"}, {"smiles": "CCN(CC)CC#CCCC1(C2(O)c3ccccc3Sc3ccccc32)SCCCS1", "note": "[2-(5-Diethylaminopent-3-ynyl)-2-(9-hydroxy-9H-thioxanthen-9-yl)-1,3-dithiane Oxalate]", "Kb": "125 ± 18"}, {"smiles": "CCN(CC)CC#CCC1(c2ccccc2)SCCCS1", "note": "[2-(4-diethylaminobut-2-ynyl)-2-phenyl-1,3-dithiane oxalate]", "Kb": "4270 ± 430"}, {"smiles": "COc1ccc(CCN(C)CC#CCCC(O[Si](C)(C)C)(c2ccccc2)C2SCCCS2)cc1OC", "note": "(stereo not shown) [2-[6-[2-(3,4-Dimethoxyphenyl)ethyl]methylamino-1-phenyl-1-trimethylsilyloxyhex-4-ynyl]-1,3-dithiane]", "Kb": "570 ± 30"}, {"smiles": "CCN(CC)CC#CCCC1(Cc2ccccc2)SCCCS1", "note": "[2-(5-Diethylaminopent-3-ynyl)-2-benzyl-1,3-dithiane Oxalate]", "Kb": "1960 ± 400"}, {"smiles": "CN(CC#CCCC1(C(O)(c2ccccc2)C2CCCCC2)SCCCS1)CCc1ccccc1", "note": "(stereo not drawn) [2-[5-(2-Phenylethyl)methylaminopent-3-ynyl]-2-(α-cyclohexyl-α-hydroxybenzyl)-1,3-dithiane Oxalate]", "Kb": "3750 ± 1250"}, {"smiles": "CCN(CC)CC#CCCC1(C2(O)c3ccccc3Sc3ccc(Cl)cc32)SCCCS1", "note": "(stereo not shown) [2-(5-Diethylaminopent-3-ynyl)-2-(2-chloro-9-hydroxy-9H-thioxanthen-9-yl)-1,3-dithiane Oxalate]", "Kb": "330 ± 50"}, {"smiles": "CN(CC#CCCC(O)(c1ccccc1)C1SCCCS1)CCc1ccccc1", "note": "(stereo not shown) [2-[6-(2-phenylethyl)methylamino-1-hydroxy-1-phenyl-hex-4-ynyl]-1,3-dithiane oxalate hemihydrate]", "Kb": "2250 ± 530"}, {"smiles": "CCCN(CC#CCCCC1(C2(O)c3ccccc3-c3ccccc32)SCCCS1)CCC", "note": "[2-(6-Dipropylaminohex-4-ynyl)-2-(9-hydroxy-9H-fluoren-9-yl)-1,3-dithiane]", "Kb": "560 ± 80"}, {"smiles": "CCN(CC)CC#CCCCC1(C2(O)c3ccccc3-c3ccccc32)SCCCS1", "note": "[2-(6-Diethylaminohex-4-ynyl)-2-(9-hydroxy-9H-fluoren-9-yl)-1,3-dithiane]", "Kb": "810 ± 220"}, {"smiles": "CCN(CC)CC#CCCC1(C(O)(c2ccccc2)C2CCCCC2)SCCCS1", "note": "(stereo not drawn) [2-(5-Diethylaminopent-3-ynyl)-2-(α-cyclohexyl-α-hydroxybenzyl)-1,3-dithiane Hemioxalate]", "Kb": "1140 ± 21"}, {"smiles": "CN(CC#CCCC1SCCCS1)Cc1ccc2ccccc2c1", "note": "[2-[5-(2-Naphthylmethyl)methylaminopent-3-ynyl]-1,3-dithiane Oxalate]", "Kb": "8330 ± 2040"}, {"smiles": "CCN(CC)CC#CCCC1(C(C)(O)c2ccccc2)SCCCS1", "note": "(stereo not drawn) [2-(5-Diethylaminopent-3-ynyl)-2-(α-hydroxy-α-methylbenzyl)-1,3-dithiane]", "Kb": "2510 ± 400"}, {"smiles": "OC1(C2(CCC#CCN3CCCCC3)SCCCS2)c2ccccc2Oc2ccccc21", "note": "[2-(5-Piperidinylpent-3-ynyl)-2-(9-hydroxy-9H-xanthen-9-yl)-1,3-dithiane]", "Kb": "399 ± 40"}, {"smiles": "CCN(CC)CC#CCCC1(C2(O)c3ccccc3-c3ccccc32)SCCCS1", "note": "[2(5-Diethylaminopent-3-ynyl)-2-(9-hydroxy-9H-fluoren-9-yl)-1,3-dithiane]", "Kb": "500 ± 100"}, {"smiles": "CCN(C)CC#CCCC1(C2(O)c3ccccc3Oc3ccccc32)SCCCS1", "note": "[2-(5-Ethylmethylaminopent-3-ynyl)-2-(9-hydroxy-9H-xanthen-9-yl)-1,3-dithiane]", "Kb": "1510 ± 530"}, {"smiles": "CN(CC#CCCCC1SCCCS1)CCc1ccccc1", "note": "[2-[6-(2-Phenylethyl)methylaminohex-4-ynyl]-1,3-dithiane Oxalate]", "Kb": "4180 ± 1540"}, {"smiles": "CN(C)CC#CCCC1(C2(O)c3ccccc3Sc3ccc(Cl)cc32)SCCCS1", "note": "(stereo not shown) [2-(5-Dimethylaminopent-3-ynyl)-2-(2-chloro-9-hydroxy-9H-thioxanthen-9-yl)-1,3-dithiane]", "Kb": "2330 ± 180"}, {"smiles": "CN(CC#CCCC1SCCCS1)CCCc1ccccc1", "note": "[2-[5-(3-Phenylpropyl)methylaminopent-3-ynyl]-1,3-dithiane Oxalate]", "Kb": "2980 ± 590"}, {"smiles": "CCN(CC)CC#CCCC(O)(c1ccccc1)C1SCCCS1", "note": "(stereo not shown) [2-(6-diethylamino-1-hydroxy-1-phenylhex-4-ynyl)-1,3-dithiane oxalate]", "Kb": "6710 ± 1450"}, {"smiles": "CN(CC#CCCC1(C2(O)c3ccccc3Sc3ccc(Cl)cc32)SCCCS1)CCCc1ccccc1", "note": "(stereo not shown) [2-[5-(3Phenylpropyl)methylaminopent-3-ynyl)-2-(2-chloro-9-hydroxy-9H-thioxanthen-9-yl)-1,3-dithiane Hemioxalate]", "Kb": "> 7000"}]}, {"tested_on": "Serotonin-Induced Diarrhea in Mice", "experiment": "Inhibition of Serotonin-Induced Diarrhea in Mice", "assay_type": "in vivo, Male CF1 mice", "conditions": "Mus musculus, ip, 0.5 h, read-out: ED50 (95% confidence limits)", "experimental": "(§7) Inhibition of Serotonin-Induced Diarrhea in Mice.\n(§8) . The mice were weighed and an average weight was used to calculate the amount of drug to be administered. Drugs were prepared in isotonic saline or an appropriate vehicle at varying concentrations and were administered intraperitoneally. Control animals were given vehicles without any test drug. Serotonin was given intraperitoneally (i.p.) in all cases 30 minutes after i.p. administration of test drug. Mice were placed in individual cages containing racks and paper liners with free access to water. Mice were observed after 30 minutes, 60 minutes and 180 minutes and graded for presence or absence of diarrhea. The grading system consisted of positive (+), negative (-) and (±) based on consistency and liquid staining. The ED50 (effective dose in 50% of population) was calculated for each test drug using the method of Litchfield-Wilcoxin. […]", "units": {"ED50": "mg/kg"}, "values": [{"smiles": "CCN(CC)CC#CCCC1(C2(O)c3ccccc3Oc3ccccc32)SCCCS1", "note": "[2-(5-Diethylaminopent-3-ynyl)-2-(9-hydroxy-9H-xanthen-9-yl)-1,3-dithiane]", "ED50": 20.7}]}, {"tested_on": "Serotonin-Induced Diarrhea in Mice", "experiment": "Inhibition of Serotonin-Induced Diarrhea in Mice", "assay_type": "in vivo, Male CF1 mice", "conditions": "Mus musculus, ip, 0.5 h; i.p., serotonin i.p. 30 minutes after test drug; mice; Litchfield-Wilcoxin; read-out: ED50 (95% confidence limits)", "experimental": "as §7, §8", "units": {"ED50": "mg/kg"}, "values": [{"smiles": "CN(C)C(=O)C(CCN1CCC(O)(c2ccc(Cl)cc2)CC1)(c1ccccc1)c1ccccc1", "note": "[loperamide, reference compound]", "ED50": 0.16}, {"smiles": "COc1ccc(CCN(C)CCCC(C#N)(c2ccc(OC)c(OC)c2)C(C)C)cc1OC", "note": "(stereo not shown) [verapamil]", "ED50": 13.3}]}, {"tested_on": "substance P-induced Cl- ion secretion by guinea-pig isolated ileal mucosa", "experiment": "not given", "assay_type": "cell-based", "conditions": "antagonist 5 μM serosal and mucosal, 5 minutes prior to substance P (1 μM)", "units": {"percent inhibition of substance P-induced increase in Isc": "%"}, "values": [{"smiles": "CCN(CC)CC#CCCC1(C2(O)c3ccccc3Oc3ccccc32)SCCCS1", "note": "[2-(5-Diethylaminopent-3-ynyl)-2-(9-hydroxy-9H-xanthen-9-yl)-1,3-dithiane]", "percent inhibition of substance P-induced increase in Isc": 55.2}, {"smiles": "CN(C)C(=O)C(CCN1CCC(O)(c2ccc(Cl)cc2)CC1)(c1ccccc1)c1ccccc1", "note": "[loperamide, reference compound]", "percent inhibition of substance P-induced increase in Isc": 36.1}]}]}
